Assay results reported in US6063803A, “Octahydropyrrolo-[3,4-c]carbazoles useful as analgesic agents” (Ortho-McNeil Pharmaceutical, Inc., priority 1999, dated 2000).
Structures can show the parent of a compound that is named as a salt.

Assay: mouse hot plate assay (48° C.)
Type: in vivo, mice
Conditions: Mus musculus, po, 0.5 h
Method: The test was essentially described by N. Eddy and D. Leimbach, Synthetic Analgesics II Dithienylbutenyl- and Dithienylbutylamines, J. Pharmacol. Exp. Ther., 107, 385-93 (1953) and J. O'Callaghan and S. Holtzman, Qualification of the Analgesic Activity of Narcotic Antagonists by a Modified Hot-Plate Procedure, J. Pharmacol. Exp. Ther, 192, 497-505 (1975), with minor modifications. Mice were placed on a heated surface (48° C.) and the time interval (seconds) between placement and a shaking, licking, or tucking of the hind paw was recorded as the predrug latency response. This procedure was repeated 30 minutes after the administration of a test compound (p.o., 10 mL/kg). The percent maximum possible antinociceptive effect (% MPE) was determined using the following formula: % MPE=100×(Test latency-Predrug latency)/(Cutoff time-Predrug Latency), using the predrug latency of each animal and cutoff time established to prevent injury to the animal. The cutoff time was 90s.
The ED50 value and 95% confidence intervals were determined using a computer-assisted linear regression analysis of the dose-response curve, including an analysis of variance test for linearity. Oral dosing of Compound 58 produced an analgesic effect after 15 min. This effect lasted for one hour.

| Structure (SMILES) | ED50 |
| --- | --- |
| COc1cccc(C2(O)CCCCC2CN(C)C)c1 (stereo not shown) [tramadol, reference compound] | 28.3 mg/kg |

Assay: rat air-induced writhing (abdominal constriction) assay
Type: in vivo, rats
Conditions: Rattus norvegicus, po
Method: The analgesic activity was determined in another model using rats as the test animal. The procedure was essentially described by P. VonVoightlander et al. in Air-induced Writhing, a Rapid Broad Spectrum Assay for Analgesics, Drug Dev. Res., 2, 577-81, (1982). The test compound or vehicle was administered p.o. (2 mL/kg) and after 30 min, the animals received an i.p. injection of air (10 mL). The animals were placed into individual observation chambers and observed for 30 min for the occurrence of abdominal constriction as defined above. The percent inhibition of this response was calculated as follows. The % inhibition of response, i.e., % analgesia is equal to the number nonresponding drug-treated animals×100 divided by the number of animals in the group. […] This effect lasted for 2-3 hours.

| Structure (SMILES) | ED50 |
| --- | --- |
| COc1cccc(C2(O)CCCCC2CN(C)C)c1 (stereo not shown) [tramadol, reference compound] | 1.7 mg/kg |

Assay: mouse acetylcholine bromide-induced abdominal constriction assay
Type: in vivo, mice (Male, Cr1:CD-1)
Conditions: Mus musculus
Method: The analgesic activity of compounds of Formula I were determined in the following in vivo assay. The procedure was run essentially as described by H. Collier et al. in B. J. Pharmacol. Chemother., 32: 295-310, 1968, with minor modifications. Mice (Male, Cr1:CD-1, Charles River Laboratories) were used in the following example. The test drugs or appropriate vehicle were administered orally (10 mL/kg, p.o.) or subcutaneously (10 mL/kg, s.c.) and 30 minutes later the animal received an intraperitoneal (i.p.) injection of 5.5 mg/kg acetylcholine bromide. The mice were then placed in glass bell jars and observed for a ten minute observation period for the occurrence of an abdominal constriction response (defined as a wave of constriction and elongation passing caudally along the abdominal wall, accompanied by a twisting of the trunk and followed by extension of the hind limbs). The percent inhibition of this response to antinociceptive stimulus (equated to % analgesia) was calculated as follows: The % inhibition of response, i.e., % analgesia is equal to the number of non-responding drug-treated animals×100 divided by the number of animals in the group.
The ED50 values and their 95% fiducial limits were determined by a computer assisted probit analysis. […] This effect lasted for 4-5 hours.
Table A lists the % inhibition for some compounds of the invention. Unless otherwise indicated the compounds were administered s.c. at 30 mg/kg. [drawing 63]

| Structure (SMILES) | ED50 |
| --- | --- |
| COc1cccc(C2(O)CCCCC2CN(C)C)c1 (stereo not shown) [tramadol, reference compound] | 5.4 mg/kg |

Same assay, conditions: Mus musculus, 0.5 h; 30 mg/kg po; acetylcholine bromide 5.5 mg/kg i.p. 30 min later; read-out: % inhibition @ 30 mg/kg (po)

| Structure (SMILES) | responders at 30 mg/kg | % of mice protected from abdominal constriction (non-responders) at 30 mg/kg |
| --- | --- | --- |
| CN1C[C@@H]2CCc3[nH]c4cc(F)ccc4c3[C@@H]2C1 (relative stereo) [Compound 30, (±)-3aα,10cα-4,5,6,10c-Octahydro-8-fluoro-2-methylpyrrolo[3,4-c]carbazole Fumarate [1:1.5]] | 100% |  |
| Cc1cccc2c3c([nH]c12)CC[C@H]1CN(C)C[C@@H]31 (relative stereo) [Compound 40, (±)-3aα,10cα,-1,2,3,3a,4,5,6,10c-octahydro-2,7-dimethylpyrrolo[3,4-c]carbazole] | 87% |  |
| CC(C)N1C[C@@H]2CCc3[nH]c4ccccc4c3[C@@H]2C1 (relative stereo) [Compound 65, (±)-3aα,10cα-4,5,6,10c-Octahydro-2-(1-methylethyl)pyrrolo[3,4-c]carbazole Hydrochloride Hydrate [1.0:1.0:0.13]] |  | 93% |
| C[C@@H]1C[C@H]2CN(C)C[C@H]2c2c1[nH]c1ccccc21 (relative stereo) [Compound 88, (±)-3aα,5α,10cα-4,5,6,10c-Octahydro-2,5-dimethylpyrrolo[3,4-c]carbazole] | 93% |  |
| CN1C[C@@H]2CCc3[nH]c4ccccc4c3[C@H]2C1 (relative stereo) [Compound 72, (±)-3aα,10cβ-1,2,3,3a,4,5,6,10c-Octahydro-2-methylpyrrolo-[3,4-c]carbazole Fumarate [1.0:0.55]] | 100% |  |
| CN1C[C@@H]2CCc3[nH]c4cccc(F)c4c3[C@@H]2C1 (relative stereo) [Compound 44] | 100% |  |
| CN1C[C@@H]2CCc3[nH]c4c(F)cccc4c3[C@@H]2C1 (relative stereo) [Compound 47] | 93% |  |
| CN1C[C@@H]2CCc3[nH]c4cccc(Cl)c4c3[C@@H]2C1 (relative stereo) [Compound 38] | 87% |  |

Same assay, conditions: Mus musculus, sc, 0.5 h; 30 mg/kg s.c.; acetylcholine bromide 5.5 mg/kg i.p. 30 min later; read-out: % inhibition @ 30 mg/kg

| Structure (SMILES) | % of mice protected from abdominal constriction (non-responders) at 30 mg/kg | responders at 30 mg/kg |
| --- | --- | --- |
| CC(C)c1ccc2[nH]c3c(c2c1)[C@@H]1CN(C)C[C@@H]1CC3 (relative stereo) [Compound 39] | 27% |  |
| CN1C[C@@H]2CCc3[nH]c4cc(Cl)ccc4c3[C@@H]2C1 (relative stereo) [Compound 37] |  | 100% |
| C=CCN1C[C@@H]2CCc3[nH]c4ccccc4c3[C@@H]2C1 (relative stereo) [Compound 66, (±)-3aα,10cα-1,2,3,3a,4,5,6,10c-Octahydro-2-(propenyl)pyrrolo[3,4-c]carbazole Fumarate [1:0.6]] | 100% |  |
| CN1C[C@@H]2CCc3[nH]c4ccc(F)cc4c3[C@@H]2C1 (relative stereo) [Compound 31] |  | 93% |
| c1ccc2c3c([nH]c2c1)CC[C@H]1CNC[C@@H]31 (relative stereo) [Compound 64, (±)-3aα,10cα-4,5,6,10c-Octahydropyrrolo[3,4-c]carbazole] |  | 80% |
| Cc1ccc2c3c([nH]c2c1C)CC[C@H]1CN(C)C[C@@H]31 (relative stereo) [Compound 34] | 100% |  |
| CN1CC2CCc3[nH]c4ccccc4c3C2C1 (single isomer, unassigned) [Compound 57] |  | 100% |
| COc1cccc2c3c([nH]c12)CC[C@H]1CN(C)C[C@@H]31 (relative stereo) [Compound 32] | 100% |  |
| CN1C[C@@H]2CCc3[nH]c4c(Cl)ccc(Cl)c4c3[C@@H]2C1 (relative stereo) [Compound 33] | 33% |  |
| CN1C[C@@H]2CCc3[nH]c4cc(C(F)(F)F)ccc4c3[C@@H]2C1 (relative stereo) [Compound 41] | 100% |  |
| Cc1cc(C)c2c3c([nH]c2c1)CC[C@H]1CN(C)C[C@@H]31 (relative stereo) [Compound 49] | 100% |  |
| C[C@H]1C[C@H]2CN(C)C[C@H]2c2c1[nH]c1ccccc21 (relative stereo) [Compound 89, (±)-3aα,5β,10cα-4,5,6,10c-Octahydro-2,5-dimethylpyrrolo[3,4-c]carbazole] |  | 100% |
| CN1C[C@@H]2CCc3[nH]c4ccc(Br)cc4c3[C@@H]2C1 (relative stereo) [Compound 36] |  | 100% |
| C[C@@H]1[C@@H]2c3c([nH]c4ccccc34)CC[C@@H]2CN1C (relative stereo) [Compound 69, (±)-1α,3aβ,10cβ-1,2,3,3a,4,5,6,10c-Octahydro-1,2-dimethylpyrrolo-[3,4-c]carbazole] |  | 100% |
| CC(C)(C)N1C[C@@H]2CCc3[nH]c4ccccc4c3[C@@H]2C1 (relative stereo) [Compound 53] | 100% |  |
| CN1C[C@@H]2CCc3[nH]c4cccc(C(F)(F)F)c4c3[C@@H]2C1 (relative stereo) [Compound 42] | 60% |  |
| CN1C[C@@H]2CCc3[nH]c4cc(F)cc(F)c4c3[C@@H]2C1 (relative stereo) [Compound 50] | 100% |  |
| CN1C[C@@H]2CCc3[nH]c4ccc(C#N)cc4c3[C@@H]2C1 (relative stereo) [Compound 73, (±)-3aα,10cα-1,2,3,3a,4,5,6,10c-Octahydro-9-cyano-2-methylpyrrolo-[3,4-c]carbazole] | 100% |  |
| CN1C[C@@H]2C(c3ccccc3)Cc3[nH]c4ccccc4c3[C@@H]2C1 (mixture of isomers) [Compound 75, (±)-3aα,10cα-1,2,3,3a,4,5,6,10c-Octahydro-2-methyl-4-phenylpyrrolo-[3,4-c]carbazole Fumarate [1.0:0.55]] | 100% |  |
| CN1C[C@@H]2CCc3[nH]c4c(C(F)(F)F)cccc4c3[C@@H]2C1 (relative stereo) [Compound 48] | 100% |  |
| CN1C[C@@H]2CCc3[nH]c4c(Cl)cccc4c3[C@@H]2C1 (relative stereo) [Compound 35] |  | 93% |
| CN1C[C@@H]2CCc3[nH]c4c(Br)cccc4c3[C@@H]2C1 (relative stereo) [Compound 45] |  | 73% |
| CCc1cccc2c3c([nH]c12)CC[C@H]1CN(C)C[C@@H]31 (relative stereo) [Compound 46] | 100% |  |
